Data set [1] is described as follows: oral pharmacokinetic test. Type of data set: in vivo, ICR mice. Particulars: ICR, mouse, plasma, 10 mg/kg, 10 mg/Kg PO, vehicle A (NMP:PEG400=5:95). How it is done: (§1) To evaluate the pharmacokinetic properties in vivo, oral pharmacokinetic test was performed with the compounds of Comparative Examples 1 and 4 and Examples 1 and 4 using mice and rats, and the PK parameters are shown in Table 10.
(§2) ICR mice (6-7 weeks old) and SD rats (6-7 weeks old) were used for the test. The fasted group was fasted about 16 hours before oral administration, and the fed group was fasted about 4 hours before oral administration. The test drug for oral administration was used by dissolving the drug in a vehicle at a concentration of 1 mg/mL for use, and blood samples were collected (time point: 0.25, 0.5, 1, 2, 4, 8, 12, 24, 32, n=3) from the heart (mouse, 500 μL/time point) or jugular vein (rat, 120 μL/time point). Blood was centrifuged at 12,000 G at 4° C. for 2 minutes to separate plasma, and stored at −80° C. until analysis. • Vehicle A (NMP:PEG400=5:95) • Vehicle B (0.5% methyl cellulose) 6-2. Sampling and Pretreatment
(§3) To 20 μl of plasma, 180 μl of acetonitrile (including internal standard) was added. The mixture was vortexed and centrifuged for 5 minutes at 15,000 rpm at 4° C. The supernatant obtained after centrifugation was analyzed by LC-MS/MS.
(§4) PK parameters were calculated with a non-compartmental analysis model using Phoenix WinNonlin 6.4 version (Pharsight, USA) program.

Data set [2] in a line: oral pharmacokinetic test. The class given is in vivo, SD rats. Particulars: SD, plasma; rat, 10 mg/Kg PO, vehicle A (NMP:PEG400=5:95). How it is done: as §1, §2, §3, §4
Data set [3] has as its system Luc_Ba/F3 T315I-Bcr-Abl cell line. The experiment in a line: in vivo pharmacological activity, blood cancer mouse model. More on the design: species or system nude mice. Particulars: 25 mg/kg oral once a day for 10 days; vehicle group: day 21. How it is done: (§5) After the mice were adapted to an animal facility for 1 week, the Luc_Ba/F3 T315I-Bcr-Abl cell line emitting luciferase was transplanted into the caudal vein at the density of 5×10^6/animal. Group separation was performed 3 days after the cell line transplantation. On the day of the group separation, 10 mice were randomly assigned to each group of 5 groups so that the luminescence values were equal after luminescence measurement using IVIS spectrum-CT optical imaging equipment.
In addition, the body weight and survival rate of each experimental group were monitored.
Statistical analysis was performed using GraphPad Prism 8, and the statistical significance of the survival rate was confirmed using unpaired t test and log-rank (Mantel-Cox) test.

The nature of data set [4]: body weight in blood cancer mouse model. Particulars: 25 mg/kg oral once a day for 10 days. The class given is in vivo, nude mice. How it is done:
as §5, with “A total of 50 male 5-week-old nude mice (14-17 g) were obtained from Orient Bio Inc. (322, Galmachi-ro, Jungwon-gu, Seongnam-si, Gyeonggi-do, Korea). After” for “After”
5 groups: control (vehicle, 0.5% methylcellulose solution), ponatinib (25 mg/kg), Example 1 (25 mg/kg), Example 1 (50 mg/kg), Example 1 (100 mg/kg).
After the group separation, the compound of Example 1, ponatinib, and a vehicle were orally administered at intervals of once a day for 10 days in order to evaluate the therapeutic efficacy of the drug. The drug effect was confirmed through optical imaging, and the confirmation was carried out before the drug administration (day 0) and on days 4, 11, 18 and 21 after the administration. In addition, the body weight and survival rate of each experimental group were monitored.

Broadly, the AUC(0-t) is exposure summed from dosing to a finite time, without extrapolation to infinity. A low value points to less exposure. As a reminder, the Cmax is the highest concentration seen after dosing. One may read the half-life as the time in which the quantity being followed falls by half. The low end stands for fast loss, the high end for slow loss.

Regarding `Cc1cn(-c2cc(NC(=O)c3ccc(C)c(C#Cc4cnc5c(Nc6cnn(C)c6)cccn45)c3)cc(C(F)(F)F)c2)cn1` [Comparative Example 1, 4-methyl-N-(3-(4-methyl-1H-imidazol-1-yl)-5-(trifluoromethyl)phenyl)-3-((8-((1-methyl-1H-pyrazol-4-yl)amino)imidazo[1,2-a]pyridin-3-yl)ethynyl)benzamide, reference compound], in data set [1], the exposure AUC(0-t) amounted to 7730 ng·h/mL, the peak level (Cmax) was 810 ng/mL and the half-life is 3.5 h.

In data set [1], `Cc1cn(-c2cc(NC(=O)c3ccc(C)c(C#Cc4cnc5c(Nc6cnn(C)c6)cccn45)c3)cc(C(C)(C)C#N)c2)cn1` [Comparative Example 4, N-(3-(2-cyanopropan-2-yl)-5-(4-methyl-1H-imidazol-1-yl)phenyl)-4-methyl-3-((8-((1-methyl-1H-pyrazol-4-yl)amino)imidazo[1,2-a]pyridin-3-yl)ethynyl)benzamide, reference compound] gave an AUC(0-t) of 12600 ng·h/mL, a Cmax of 3840 ng/mL and a half-life of 3.3 h. In data set [2], this molecule came in with an area under the curve AUC(0-t) of 2960 ng·h/mL and a Cmax of 169 ng/mL.

With `Cc1ccc(C(=O)Nc2ccc(CN3CCN(C)CC3)c(C(F)(F)F)c2)cc1C#Cc1cnc2cccnn12` [ponatinib, reference compound], the “day after the administration on which all subjects died (FIG. 3)” value in data set [3] came out at 35 days. The “body weight change during the experimental period (FIG. 4)” value in data set [4] is “no significant body weight change”.

The values are drawn from patent US12673945B2, “3-((8-((1H-pyrazol-4-yl)amino)imidazo[1,2-a]pyridin-3-yl)ethinyl)-n-phenylbenzamide derivative, method for preparing same, and pharmaceutical composition containing same as active ingredient for prevention or treatment of cancer” (DAEGU-GYEONGBUK MEDICAL INNOVATION FOUNDATION, priority 2020, dated 2026).
